Results from patent US20150079590A1, “CHARACTERIZATION AND ANALYSIS OF THE COMPOSITION AND DYNAMICS OF THE MAMMALIAN RIBOPROTEOME” (Beth Israel Deaconess Medical Center, Inc., priority 2013, published 2015).

Experiments:
[1] = tested on: riboproteomes of PPC1 prostate cancer cells; assay: SILAC riboproteomic analysis of polysomes upon mTOR inhibition; assay type: cell-based, human
Protocol: SILAC labeled protein mixtures were run by SDS-PAGE and gel lanes were cut into 8 sections for overnight digestion at pH 8.0 with modified sequencing grade trypsin (Promega Corp.). Peptide mixtures were eluted and each gel section was analyzed separately by microcapillary liquid chromatography-tandem mass spectrometry (LC-MS/MS) using the EASY-nLC nanoflow HPLC (Thermo Fisher Scientific) with a 75 μm inner diameter×15 cm length Picofrit capillary column (New Objective, Inc.) self-packed with 5 μm Magic C18 resin (Michrom Bioresources) coupled to a hybrid LTQ Orbitrap XL-ETD mass spectrometer (Thermo Fisher Scientific). The LTQ Orbitrap XL was operated in data-dependent acquisition (DDA) Top 5 mode (1 profile FT-MS spectrum followed by 6 centroided IT-MS/MS spectra). The resolution was 30,000 in FT-MS mode and MS/MS spectra were read out at low resolution in the LTQ XL ion trap. […] Carbamidomethylation of cysteine was set as fixed modification and variable modifications were oxidation of methionine and protein N-acetylation. […] Initial peptide mass tolerance was set to 12 ppm and fragment ion mass tolerance was set to 0.8 Da. Two missed cleavages were allowed and the minimal length required for a peptide was six amino acids. […]

[2] = tested on: binding of LARP1 at the polysome; assay: Micrococcal nuclease (MN) assay on pooled sucrose gradient fractions, ribosome pelleting and western blot; settings: cells treated with PP242 prior to analysis
Protocol: Pooled sucrose gradient fractions containing LARP1 protein, were treated with and without MN. Ribosomes were subsequently pelleted by ultracentrifugation, and the protein in supernatant and pellet isolated for western blot analysis.

[3] = tested on: ribosome-mRNA complexes of PC3 prostate cancer cells; assay: Puromycin-mediated dissociation of ribosome-mRNA complexes, western blot of polysomal fractions; assay type: biochemical, human; settings: 1 mM puromycin in lysis buffer, 37° C. 15 min
Protocol: Puromycin-induced polysome dissociation was carried out by the addition of 1 mM puromycin directly to the lysis buffer lacking cycloheximide as previously described (Blobel and Sabatini, Proc Natl Acad Sci USA 68:390-394, 1971; Fuchs et al., J Mol Biol. 410:118-130, 2011). Briefly, following lysis, the samples were incubated at 37° C. for 15 min to dissociate ribosome-mRNA complexes. Lysates were centrifuged at 13,000 rpm for 5 min at 4° C., and the supernatant carefully removed and loaded on a 15%-50% sucrose gradient. Gradients were centrifuged and fractionated as described above.
Cells were lysed in lysis buffer containing Complete Mini protease inhibitors (EDTA free) (Roche) and a Phosphatase Inhibitor cocktail (Thermo Scientific). 5-50 μg of total protein was subjected to SDS-PAGE on 4-12% Bis-Tris acrylamide NuPAGE gels in MOPS SDS running buffer (Invitrogen). The following primary antibodies were used: MARCKS, phospho-MARCKS (S152/156), Integrin β1, Calmodulin, Hsp27, Hsp60, RpL13a, RpL7a, and RpS6 (all Cell Signaling), HSP90, (BD Bioscience; BD Transduction Laboratories), hnRNPC1/C2 (Millipore), Rps14 and β-actin (all from Santa Cruz Biotechnologies). The NPM antibody was from DAKO and the IGF2BP3 antibody was from ProteinTech. Subsequently, membranes were incubated with secondary, HRP-tagged antibodies (Amersham) and signals were visualized with ECL or ECL plus (Amersham). […]

In the case of `CC(C)n1nc(-c2cc3cc(O)ccc3[nH]2)c2c(N)ncnc21` [PP242], the “disassociation of proteins incl. ribosomal proteins (RpL4, RpL6, RpS6) from the riboproteome” value ([1]; PP242 500 nM for three hours vs DMSO) was “rapid and significant disassociation from the riboproteome”, the “impact on the composition of the riboproteome” value ([1]; rapamycin 20 nM or PP242 500 nM for three hours vs DMSO, SILAC mass spectrometry of polysomes) was “much stronger and more robust perturbation of the riboproteome” and the “LARP1 in supernatant after ribosome pelleting” value [2] was “more LARP1 observed in the supernatant”. The “PABP association with polysome fractions” value [2] was “remain tightly intact with polysome fractions”.
For `COc1ccc(C[C@H](N)C(=O)N[C@H]2[C@@H](O)[C@H](n3cnc4c(N(C)C)ncnc43)O[C@@H]2CO)cc1` [puromycin], the “RpS6 and RpL13a on polyribosomes” value ([3]; pooled polysomal fractions) was “loss of RpS6 and RpL13a from polyribosomes” and the “presence of MARCKS in polyribosome fractions” value ([3]; PC3 cells) was “dramatically decreased”.
